# Counter-ions that a name gives are not always drawn.
# Experiments:
# LC3 proteins = experiment: ITC and NMR titrations; type: binding; conditions: by ITC and NMR
# Method: All ITC experiments were performed at 25 °C using a VP-ITC microcalorimeter (MicroCal Inc, MA, USA) and analyzed with the ITC-Origin 7.0 software (MicroCal Inc.) based on a "one-site binding" reaction. […] Dilution heat of both compounds was measured upon titration of the stocks into buffer. All experiments were performed on a Bruker Avance spectrometer operating at a proton frequency of 500, 600 and 700 MHz at 298 K.
# LC3B [1] = molecular target: T1, LC3B (Homo sapiens, UniProt Q9GZQ8); experiment: AlphaScreen interaction displacement assay (GST-LC3B / biotin-LIRtide); type: binding; conditions: Table 1-a, n.e. means no effect
# T1 construct: made in house; host or cells: E. coli Rosetta (DE3)
# Method: The AlphaScreen assay contained 50 mM Tris (pH 7.5), 100 mM NaCl, 0.01% Tween 20, 2 mM DTT, 1 % DMSO and 2-30 nM GST-LC3B and biotin-LIRtide 2-30 nM. The concentrations of GST-LC3B and biotin-LIRtide were experimentally chosen from a cross-titration assay exploring the different combinations of for each batch of protein used and when a new batch of buffer was prepared.
# A gene encoding for human LC3B protein inserted in a pET-GST expression vector was used as a template. Rosetta (DE3) competent cells were transformed by started procedure, plated on an LB agar plate with ampicillin (100 µg/ml) and left overnight at 37 °C. Overnight culture was prepared from a single colony and shaken at 180 rpm at 37 °C. LB medium with ampicillin was inoculated with overnight culture (10 ml per 500 ml of LB) and shaken until the optical density at 600 nm (OD600) reached a value of approximately 0.6. Protein expression was then induced with 400 µM IPTG and further incubated for 4 hours. Bacterial culture was centrifuged for 20 minutes at 6000 rpm at 4 °C. The pellet was then resuspended in lysis buffer (20 mM TRIS-HCl pH 7.5, 10 mM EDTA, 5 mM EGTA, 150 mM NaCl, 0.5 % NP40, 1 % Triton X-100, 1 mM DTT, 2 mg/ml lysozyme, 0.05 U/µl benzonase, 1x protease inhibitor cocktail). Lysate was then stored at -20 °C over night. Sample was thawed in water bath and sonicated on ice (40 % amplitude, 30 seconds pulse/30 seconds pause cycle). Lysate was centrifuged at 10000xg at 4 °C for half an hour. Meanwhile, 500 µl of glutathione sepharose beads was equilibrated with lysis buffer and then added to the supernatant. The mixture was incubated and rotated at room temperature for 2 hours. After binding of the protein to the beads, beads were spun down at 500xg at 4 °C for 5 minutes. Pellet was then washed with cold wash buffer at least four times (20 mM Tris-HCl pH 7.5, 10 mM EDTA, 5 mM EGTA, 150 mM NaCl, 1 mM DTT), dried and stored in 5 % glycerol at 4 °C.
# LC3B [2] = experiment: cellular autophagy screening: LC3B spots by immunocytochemistry and automated confocal imaging; type: cell-based; conditions: relative to negative DMSO control, 100 µM, 1 hour; for LC3B inhibition cell based Fold increase of LC3B spots [DMSO control 1.0]: Table 1-a, n.e. means no effect
# Method: For screening purposes, cells were seeded in 384 well plates and left over night for attachment.
# Afterwards, medium was removed and 4 % (w/v) paraformaldehyde (PFA) in PBS buffer was added to the cells for 20 minutes, incubated at room temperature. Cells were permeabilized with 0.1 % (v/v) Triton X-100 for 10 min at room temperature and washed with PBS. Cells were blocked with 3 % (w/v) bovine serum albumin (BSA) in PBS for 45 minutes at 37 °C and then incubated with anti-LC3B (PM036, MBL) or anti-p62 (PM045 or M162-3, MBL) primary antibody diluted in 0.3 % BSA (1:2000 or 1:500) for 1.5-2 hours at 37 °C. Cells were washed three times with PBS.
# 384 well plates were then analyzed with an automated confocal microscope Opera (PerkinElmer) enabling high throughput high content screening image analysis. […] A water immersion 60x objective was used for optical slicing and stacking (5x0.5 µm stacks). […] Signal was detected with a fast gated CCD camera. Acapella software (PerkinElmer) is an algorithm based high content imaging and analysis software used in multi-parametric multiplex assays. Acapella was used to follow cell viability (i.e. number of cells) and the number of LC3B and p62 spots per cell.
# The LC3B protein is a ubiquitin-like protein that can be conjugated to phosphatidylethanolamine (PE) in the membrane of the incipient autophagosome. The nonlipidated and lipidated forms are usually referred to as LC3B-I and LC3B-II, respectively. […] Autophagic flux is often inferred on the basis of LC3B-II turnover, measured by western blot (WB) or immunofluorescence (IF) in the presence and absence of lysosomal degradation. […] Lysosomal degradation can be prevented e.g. through the use of compounds that neutralize the lysosomal pH such as Bafilomycin A1 (BafA1) or chloroquine (CQ). […] An additive or supra-additive effect in LC3B-II levels (WB) and LC3B-positive punctae numbers (IF) may indicate that the treatment enhances autophagic flux. […] This assay can be complemented by simultaneous monitoring of autophagosomal substrates or autophagosomal substrate receptors (e.g. SQSTM1/p62) by WB and/or IF. For example, an increase in LC3B-II levels in combination with the accumulation of SQSTM1/p62 is indicative of a blockage of the autophagy pathway at terminal stages.
# U2OS cells = experiment: autophagic flux by confocal microscopy and western blotting; type: cell-based, Human; conditions: 100 nM, alone
# Method: […]. After harvesting, cells were lysed with radioimmunoprecipitation assay (RIPA) buffer (50 mM Tris-HCl, pH 7.5, 150 mM NaCl, 0.5 % deoxycholate, 1 % Triton X-100, 0.1 % SDS and 1x protease inhibitors) and left on ice for 30 minutes. Cell lysates were clarified by centrifugation at 10000xg for 20 min at 4 °C. Protein concentrations of the supernatants were determined by BCA assay and the absorbance was measured at 562 nm. SDS-PAGE and WB was performed.
# For screening purposes, cells were seeded in 384 well plates and left over night for attachment. […]. For controls, cells were treated with 250 nM torin and/or 100 nM BafA1 for 2 hours.
# Afterwards, medium was removed and 4 % (w/v) paraformaldehyde (PFA) in PBS buffer was added to the cells for 20 minutes, incubated at room temperature. Cells were permeabilized with 0.1 % (v/v) Triton X-100 for 10 min at room temperature and washed with PBS. Cells were blocked with 3 % (w/v) bovine serum albumin (BSA) in PBS for 45 minutes at 37 °C and then incubated with anti-LC3B (PM036, MBL) or anti-p62 (PM045 or M162-3, MBL) primary antibody diluted in 0.3 % BSA (1:2000 or 1:500) for 1.5-2 hours at 37 °C. Cells were washed three times with PBS. Secondary Alexa Fluor 488 - labeled antibodies (A-11008, Invitrogen) were diluted in 0.3 % BSA (1:2500) and incubated on cells for 15 minutes at 37 °C. Cells were washed once with PBS, incubated with DRAQ5 (#4084, Cell Signaling) diluted in PBS (1:5000) for 10 minutes and washed three times with PBS.
# 384 well plates were then analyzed with an automated confocal microscope Opera (PerkinElmer) enabling high throughput high content screening image analysis. […] Signal was detected with a fast gated CCD camera. […]
# The LC3B protein is a ubiquitin-like protein that can be conjugated to phosphatidylethanolamine (PE) in the membrane of the incipient autophagosome. […] Autophagic flux is often inferred on the basis of LC3B-II turnover, measured by western blot (WB) or immunofluorescence (IF) in the presence and absence of lysosomal degradation. […]
Structure (SMILES),LC3B inhibition cell based Fold increase of LC3B spots [DMSO control 1.0] (LC3B [2]),LC3B inhibition cell free IC50 (LC3B [1]),also measured
"CO[C@@H]1[C@@H](OC(N)=O)[C@@H](O)[C@H](Oc2ccc3c(O)c(NC(=O)c4ccc(O)c(CC=C(C)C)c4)c(=O)oc3c2C)OC1(C)C [Compound 2-0, Novobiocin Sodium Salt]",,,Kd (LC3 proteins): 5 to 50 µM
"COC(=O)[C@H](CC(C)C)NC(=O)c1cccc(CSC2=NCN(Cc3cccnc3)CN2)c1 [Compound I-12, methyl(3-(((5-(pyridin-3-ylmethyl)-1,4,5,6-tetrahydro-1,3,5-triazin-2-yl)thio)methyl)benzoyl)leucinate]",5.0,,IC50 (LC3B [1]; read-out: LC3B inhibition cell free IC50): 8.9 µM
"Fc1ccc(CN2CN=C(SCc3ccc(Br)cc3)NC2)cc1 [Compound I-14, 6-((4-bromobenzyl)thio)-3-(4-fluorobenzyl)-1,2,3,4-tetrahydro-1,3,5-triazine]",5.8,n.e,
"Fc1ccc(CN2CN=C(SCc3ccc(Cl)cc3)NC2)cc1 [Compound I-15, 6-((4-chlorobenzyl)thio)-3-(4-fluorobenzyl)-1,2,3,4-tetrahydro-1,3,5-triazine]",5.9,n.e,
"Fc1ccc(CN2CN=C(SCc3cccc(Oc4ccccc4)c3)NC2)cc1 [Compound I-16, 3-(4-fluorobenzyl)-6-((3-phenoxybenzyl)thio)-1,2,3,4-tetrahydro-1,3,5-triazine]",n.e.,n.e,
"Fc1ccc(CN2CN=C(SCc3ccc(Br)cc3)NC2)cc1F [Compound I-17, 6-((4-bromobenzyl)thio)-3-(3,4-difluorobenzyl)-1,2,3,4-tetrahydro-1,3,5-triazine]",4.2,n.e,
"CO/C1=C\C(C)=C\[C@@H](C)[C@@H](O)[C@@H](C)C/C(C)=C/C=C/[C@H](OC)[C@@H]([C@@H](C)[C@@H](O)[C@H](C)[C@@]2(O)C[C@@H](O)[C@H](C)[C@@H](C(C)C)O2)OC1=O [bafilomycin A1, reference compound]",5.5,,amount of LC3B-positive spots and lipidated LC3B (LC3B-II) (U2OS cells): increased; LC3B Inhibition cell based Fold increase of LC3B spots (LC3B [2]; Table 2a): 5.5

# Reference: patent EP3184514A1, “AUTOPHAGY INHIBITORS” (Deutsches Krebsforschungszentrum, priority 2015, dated 2017)
